The source made the active and inactive calls. The calls are words filed in the database; no cut-off is given here.
What was measured:
[1] = target: T1, von Hippel-Lindau disease tumor suppressor/Hemagglutinin (Homo sapiens, UniProt P03452+P40337); assay: Protac activity at VHL (unknown origin)/influenza A hemagglutinin transfected in HEK293T cells assessed as degradation of hemagglutinin incubated for 24 hrs by Western blot analysis; format: cell-based; conditions: dose 0.03-33.3 µM, DDE = dose-dependent effect
Target sequence in this assay (P03452 whole entry, looked up): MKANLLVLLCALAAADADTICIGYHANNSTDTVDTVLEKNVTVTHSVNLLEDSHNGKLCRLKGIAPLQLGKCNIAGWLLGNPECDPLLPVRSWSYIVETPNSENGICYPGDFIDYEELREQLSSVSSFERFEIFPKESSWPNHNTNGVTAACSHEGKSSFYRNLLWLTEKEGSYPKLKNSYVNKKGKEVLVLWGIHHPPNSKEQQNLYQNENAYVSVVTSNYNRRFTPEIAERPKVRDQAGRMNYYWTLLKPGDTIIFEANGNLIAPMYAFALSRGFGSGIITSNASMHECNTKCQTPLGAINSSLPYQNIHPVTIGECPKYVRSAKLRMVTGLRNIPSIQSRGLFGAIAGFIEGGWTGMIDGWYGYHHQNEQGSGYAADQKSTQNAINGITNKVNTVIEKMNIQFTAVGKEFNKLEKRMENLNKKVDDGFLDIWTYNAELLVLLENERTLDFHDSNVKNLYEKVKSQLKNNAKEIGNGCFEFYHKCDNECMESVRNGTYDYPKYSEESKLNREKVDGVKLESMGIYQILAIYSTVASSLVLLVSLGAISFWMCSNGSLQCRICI
Target sequence in this assay (P40337 whole entry, looked up): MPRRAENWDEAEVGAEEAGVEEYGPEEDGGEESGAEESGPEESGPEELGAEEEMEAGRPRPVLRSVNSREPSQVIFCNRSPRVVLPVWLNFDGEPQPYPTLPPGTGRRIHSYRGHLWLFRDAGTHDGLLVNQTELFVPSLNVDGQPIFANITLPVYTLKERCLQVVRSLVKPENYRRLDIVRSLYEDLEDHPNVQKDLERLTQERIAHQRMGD

[2] = target: T1, von Hippel-Lindau disease tumor suppressor/Hemagglutinin; assay: Protac activity at VHL (unknown origin)/influenza A hemagglutinin transfected in HEK293T cells assessed as degradation of hemagglutinin at 33 uM incubated for 24 hrs by Western blot analysis relative to control; format: cell-based
Target sequence in this assay (P03452 whole entry, looked up): as the sequence (P03452 whole entry, looked up) above
Target sequence in this assay (P40337 whole entry, looked up): as the sequence (P40337 whole entry, looked up) above

[3] = target: T1, von Hippel-Lindau disease tumor suppressor/Hemagglutinin; assay: Protac activity at VHL (unknown origin)/influenza A hemagglutinin transfected in HEK293T cells assessed as degradation of hemagglutinin incubated for 12 hrs by Western blot analysis; format: cell-based; conditions: dose 0.39-25 µM, DDE = dose-dependent effect
Target sequence in this assay (P03452 whole entry, looked up): as the sequence (P03452 whole entry, looked up) above
Target sequence in this assay (P40337 whole entry, looked up): as the sequence (P40337 whole entry, looked up) above

[4] = test system: HEK-293T; assay: Cytotoxicity against HEK293T cells assessed as reduction in cell viability at 50 uM incubated for 36 hrs by Celltiter-Glo assay; format: toxicity, cell-based; conditions: human
[5] = test system: Influenza A virus; assay: Antiviral activity against Influenza A A/WSN/33 (H1N1) infected in dog MDCK cells assessed as inhibition of viral induced cytopathic effect incubated for 40 hrs by CellTiter-Glo assay; format: functional, organism-based
[6] = target: Hemagglutinin (Influenza A virus, UniProt B4URE7); assay: Binding affinity to recombinant influenza A hemagglutinin assessed as dissociation constant by SPR assay
[7] = target: T2, Protein cereblon/Hemagglutinin (Influenza A virus) (UniProt B4URE7+Q96SW2); assay: Protac activity at CRBN (unknown origin)/Influenza A hemagglutinin transfected in HEK293T cells assessed as induction of hemagglutinin degradation at 0.78 uM incubated for 24 hrs by Western blot analysis relative to control; format: cell-based
[8] = target: T2, Protein cereblon/Hemagglutinin (Influenza A virus); assay: Protac activity at CRBN (unknown origin)/Influenza A hemagglutinin transfected in HEK293T cells assessed as induction of hemagglutinin degradation at 50 uM incubated for 12 hrs by Western blot analysis relative to control; format: cell-based
[9] = Cmax in BALB/c mouse infected with Influenza A A/WSN/33 (H1N1) virus at 10 mg/kg, iv measured after 24 hrs by LC-MS analysis; format: ADME, organism-based; set-up: time 24 hrs, dose 10 mg/kg, route iv; conditions: in vivo
[10] = target: von Hippel-Lindau disease tumor suppressor (Homo sapiens, UniProt P40337); assay: Binding affinity to human recombinant VHL assessed as dissociation constant by SPR assay
[11] = test system: Influenza A virus; assay: Antiviral activity against Influenza A A/WSN/33 (H1N1) infected in BALB/c mouse assessed as recovery of body weight at 10 to 20 mg/kg/day, iv administered for 5 days starting from 2 hrs post infection and measured daily for 14 days; format: functional, organism-based; conditions: dose 10-20 mg/kg/day, time 14.0 day
[12] = MRT in BALB/c mouse infected with Influenza A A/WSN/33 (H1N1) virus at 10 mg/kg, iv measured after 24 hrs by LC-MS analysis; format: ADME, organism-based; conditions: in vivo
[13] = Acute toxicity in BALB/c mouse infected with Influenza A A/WSN/33 (H1N1) virus assessed as mortality at 10 to 20 mg/kg/day, iv administered for 5 days starting from 2 hrs post infection and measured daily for 14 days; format: organism-based; conditions: in vivo, 336 h, dose 10-20 mg/kg/day, time 14 day
[14] = test system: Influenza A virus; assay: Antiviral activity against Influenza A A/Aichi/2/68 (H3N2) infected in HEK293T cells incubated for 12 hrs; format: functional, organism-based; conditions: HEK-293T
[15] = test system: Influenza A virus; assay: Antiviral activity against Influenza A A/WSN/33 (H1N1) infected in BALB/c mouse assessed as plaque reduction at 10 to 20 mg/kg/day, iv incubated for 4 to 16 days (reference value: 2.7x10^6 PFU/g); format: functional; conditions: dose 10-20 mg/kg/day, time 4-16 day
[16] = target: T1, von Hippel-Lindau disease tumor suppressor/Hemagglutinin; assay: Protac activity at VHL (unknown origin)/influenza A hemagglutinin transfected in HEK293T cells assessed as reduction in hemagglutinin level at 10 uM by immunoblotting analysis relative to control; format: cell-based; set-up: scale not given: the % may be the effect or the level left
Target sequence in this assay (P03452 whole entry, looked up): as the sequence (P03452 whole entry, looked up) above
Target sequence in this assay (P40337 whole entry, looked up): as the sequence (P40337 whole entry, looked up) above

[17] = target: T1, von Hippel-Lindau disease tumor suppressor/Hemagglutinin; assay: Protac activity at VHL (unknown origin)/influenza A hemagglutinin transfected in HEK293T cells assessed as degradation of hemagglutinin incubated for 10 hrs by Western blot analysis; format: cell-based
[18] = target: T1, von Hippel-Lindau disease tumor suppressor/Hemagglutinin; assay: Protac activity at VHL (unknown origin)/influenza A hemagglutinin transfected in HEK293T cells assessed as accumulation of ubiquitinated hemagglutinin at 20 uM preincubated for 4 hrs followed by proteosome inhibitor, MG-132 addition and measured after 4 hrs by Immunoprecipitation analysis; format: cell-based
Target sequence in this assay (P03452 whole entry, looked up): as the sequence (P03452 whole entry, looked up) above
Target sequence in this assay (P40337 whole entry, looked up): as the sequence (P40337 whole entry, looked up) above

[19] = Oral bioavailability in BALB/c mouse infected with Influenza A A/WSN/33 (H1N1) virus at 50 mg/kg measured after 24 hrs by LC-MS analysis; format: ADME, organism-based; conditions: in vivo
[20] = Cytotoxicity against HEK293T cells assessed as cell viability at 50 uM incubated for 36 hrs by Celltiter-Glo assay relative to control; format: toxicity, cell-based, HEK-293T; conditions: human, read-out: Activity
[21] = test system: Influenza A virus; assay: Antiviral activity against Influenza A A/WSN/33 (H1N1) infected in BALB/c mouse assessed as reduction in virus induced lung lesion at 10 mg/kg, iv measured on day 4 by histopathological staining based analysis; format: functional, organism-based; conditions: time 4.0 day
[22] = Elimination half life in BALB/c mouse infected with Influenza A A/WSN/33 (H1N1) virus at 10 mg/kg, iv measured after 24 hrs by LC-MS analysis; format: ADME, organism-based; conditions: in vivo, read-out: LambdaZ (converted)
[23] = target: T1, von Hippel-Lindau disease tumor suppressor/Hemagglutinin; assay: Protac activity at VHL (unknown origin)/influenza A hemagglutinin transfected in HEK293T cells assessed as degradation of hemagglutinin incubated for 7 to 10 hrs by Western blot analysis; format: cell-based; conditions: time 7-10 hrs
Target sequence in this assay (P03452 whole entry, looked up): as the sequence (P03452 whole entry, looked up) above
Target sequence in this assay (P40337 whole entry, looked up): as the sequence (P40337 whole entry, looked up) above

[24] = test system: Influenza A virus; assay: Antiviral activity against influenza A A/WSN/33 (H1N1) infected in HEK293T cells assessed as reduction in hemagglutinin level at virion replication and release stage at 25 uM mesured after 3 to 9 hrs by immunofluorescence based confocal microscopic analysis; format: functional, organism-based; conditions: time 3-9 hrs
[25] = test system: Influenza A virus; assay: Antiviral activity against Influenza A A/WSN/33 (H1N1) infected in BALB/c mouse assessed as reduction in virus induced inflammation at 10 mg/kg, iv measured on day 4 by histopathological staining based analysis; format: functional, organism-based; conditions: time 4.0 day
[26] = test system: Influenza A virus; assay: Antiviral activity against Influenza A A/WSN/33 (H1N1) infected in BALB/c mouse assessed as fold reduction plaque count at 10 to 20 mg/kg/day, iv incubated for 4 to 16 days relative to control; format: functional; conditions: dose 10-20 mg/kg/day, time 4-16 day
[27] = AUCinfinity in BALB/c mouse infected with Influenza A A/WSN/33 (H1N1) virus at 10 mg/kg, iv measured after 24 hrs by LC-MS analysis; format: ADME, organism-based; set-up: dose 10 mg/kg, time 24 hrs, route iv; conditions: in vivo
[28] = test system: Influenza A virus; assay: Antiviral activity against Influenza A A/WSN/33 (H1N1) infected in HEK293T cells incubated for 12 hrs; format: functional, organism-based; conditions: HEK-293T
[29] = test system: Influenza B virus; assay: Antiviral activity against Influenza B B/Florida/4/2006 infected in HEK293T cells incubated for 12 hrs; format: functional, organism-based; conditions: B/Florida/4/2006, HEK-293T
[30] = Elimination half life in BALB/c mouse infected with Influenza A A/WSN/33 (H1N1) virus at 50 mg/kg, po measured after 24 hrs by LC-MS analysis; format: ADME, organism-based; conditions: in vivo, read-out: LambdaZ (converted)
[31] = Acute toxicity in BALB/c mouse infected with Influenza A A/WSN/33 (H1N1) virus assessed as decrease in body weight at 10 to 20 mg/kg/day, iv administered for 5 days starting from 2 hrs post infection and measured daily for 14 days; format: organism-based; conditions: in vivo, 336 h, dose 10-20 mg/kg/day, time 14 day
[32] = test system: Influenza A virus; assay: Antiviral activity against Influenza A A/California/08/2009 (H1N1) infected in HEK293T cells incubated for 12 hrs; format: functional, organism-based; conditions: HEK-293T
[33] = Cmax in BALB/c mouse infected with Influenza A A/WSN/33 (H1N1) virus at 50 mg/kg, po measured after 24 hrs by LC-MS analysis; format: ADME, organism-based; set-up: time 24 hrs, dose 50 mg/kg, route po; conditions: in vivo
[34] = Tmax in BALB/c mouse infected with Influenza A A/WSN/33 (H1N1) virus at 50 mg/kg, po administered as single dose measured after 24 hrs by LC-MS analysis; format: ADME, organism-based; conditions: in vivo
[35] = MRT in BALB/c mouse infected with Influenza A A/WSN/33 (H1N1) virus at 50 mg/kg, po measured after 24 hrs by LC-MS analysis; format: ADME, organism-based; conditions: in vivo
[36] = AUCinfinity in BALB/c mouse infected with Influenza A A/WSN/33 (H1N1) virus at 50 mg/kg, po measured after 24 hrs by LC-MS analysis; format: ADME, organism-based; set-up: time 24 hrs, dose 50 mg/kg, route po; conditions: in vivo
[37] = target: T1, von Hippel-Lindau disease tumor suppressor/Hemagglutinin; assay: Protac activity at VHL (unknown origin)/influenza A hemagglutinin transfected in HEK293T cells assessed as degradation of hemagglutinin at 0.39 to 25 uM incubated for 10 hrs by Western blot analysis; format: cell-based; conditions: dose 0.39-25 µM

von Hippel-Lindau disease tumor suppressor, sequence (P40337 whole entry): as the sequence (P40337 whole entry, looked up) above

Cc1ncsc1-c1ccc(CNC(=O)[C@@H]2C[C@@H](O)CN2C(=O)[C@@H](NC(=O)CCOCCNC(=O)[C@]23CCC(C)(C)C[C@H]2C2=CC[C@@H]4[C@@]5(C)CC[C@H](O)C(C)(C)[C@@H]5CC[C@@]4(C)[C@]2(C)CC3)C(C)(C)C)cc1
Activity [1]: Dde | Activity [2]: 50% | Activity [3]: Dde

Cc1ncsc1-c1ccc(CNC(=O)[C@@H]2C[C@@H](O)CN2C(=O)[C@@H](NC(=O)CCOCCOCCOCCOCCOCCOCCOCCOCCOCCOCCNC(=O)[C@]23CCC(C)(C)C[C@H]2C2=CC[C@@H]4[C@@]5(C)CC[C@H](O)C(C)(C)[C@@H]5CC[C@@]4(C)[C@]2(C)CC3)C(C)(C)C)cc1
Activity [4]: Toxic

CC1(C)CC[C@]2(C(=O)O)CC[C@]3(C)C(=CC[C@@H]4[C@@]5(C)CC[C@H](O)C(C)(C)[C@@H]5CC[C@]43C)[C@@H]2C1 [OLEANOLIC_ACID]
IC50 [5]: > 200 µM | Kd [6]: 10.9 µM

CC1(C)CC[C@]2(C(=O)NCCOCCOCCOCCNc3cccc4c3C(=O)N(C3CCC(=O)NC3=O)C4=O)CC[C@]3(C)C(=CC[C@@H]4[C@@]5(C)CC[C@H](O)C(C)(C)[C@@H]5CC[C@]43C)[C@@H]2C1 (some centres undefined)
Activity [7]: > 50% | Activity [8]: 20%

Cc1ncsc1-c1ccc(CNC(=O)[C@@H]2C[C@@H](O)CN2C(=O)[C@@H](NC(=O)CCOCCOCCNC(=O)[C@]23CCC(C)(C)C[C@H]2C2=CC[C@@H]4[C@@]5(C)CC[C@H](O)C(C)(C)[C@@H]5CC[C@@]4(C)[C@]2(C)CC3)C(C)(C)C)cc1
Activity [1]: Dde | Activity [2]: 50% | Activity [3]: Dde

Cc1ncsc1-c1ccc(CNC(=O)[C@@H]2CCCN2C(=O)[C@@H](NC(=O)CCOCCOCCOCCNC(=O)[C@]23CCC(C)(C)C[C@H]2C2=CC[C@@H]4[C@@]5(C)CC[C@H](O)C(C)(C)[C@@H]5CC[C@@]4(C)[C@]2(C)CC3)C(C)(C)C)cc1
Cmax [9]: 2070 ng/mL | Kd [10]: 9.25 µM | Activity [11]: Active | MRT [12]: 58.8 min | Activity [13]: Non-Toxic | EC50 [14]: 8.98 µM | Activity [15]: 8.1 10^5PFU/g | Activity [16]: 60% | DC50 [17]: 1440 nM | Activity [1]: Dde | Activity [18]: Active | bioavailability [19]: 6.8% | viability at 36 h, 50 µM [20]: > 85% | Activity [21]: Active | half-life [22]: 172 min | Activity [23]: Active | Kd [6]: 3.18 µM | Activity [2]: 50% | Activity [3]: Dde | Activity [24]: Active | Activity [25]: Active | fold change (FC) [26]: 3.5 | AUC(0-inf) [27]: 7450 ng·h/mL | EC50 [28]: 4.53 µM | EC50 [29]: > 25 µM | half-life [30]: 158 min | Activity [4]: 85% | Activity [31]: Non-Toxic | EC50 [32]: 5.98 µM | Cmax [33]: 2070 ng/mL | Tmax [34]: 30 min | MRT [35]: 1.56 h | AUC(0-inf) [36]: 2550 ng·h/mL

Cc1ncsc1-c1ccc(CNC(=O)[C@@H]2C[C@@H](O)CN2C(=O)[C@@H](NC(=O)CCOCCOCCOCCOCCOCCNC(=O)[C@]23CCC(C)(C)C[C@H]2C2=CC[C@@H]4[C@@]5(C)CC[C@H](O)C(C)(C)[C@@H]5CC[C@@]4(C)[C@]2(C)CC3)C(C)(C)C)cc1
Activity [4]: Toxic

Cc1ncsc1-c1ccc(CNC(=O)[C@@H]2CCCN2C(=O)[C@@H](N)C(C)(C)C)cc1
Kd [10]: 4.97 µM

Cc1ncsc1-c1ccc(CNC(=O)[C@@H]2C[C@@H](O)CN2C(=O)[C@@H](NC(=O)CCOCCOCCOCCOCCOCCOCCOCCNC(=O)[C@]23CCC(C)(C)C[C@H]2C2=CC[C@@H]4[C@@]5(C)CC[C@H](O)C(C)(C)[C@@H]5CC[C@@]4(C)[C@]2(C)CC3)C(C)(C)C)cc1
Activity [17]: Active | Activity [37]: Active | Activity [4]: Toxic
